# Experimental data: ChEMBL document CHEMBL4364300, “Boron in drug design: Recent advances in the development of new therapeutic agents” (Eur J Med Chem, 2019)
# Legend:
# THP-1 = assay: Cytotoxicity against human THP1 cells after 72 hrs by SRB assay; format: functional, cell-based; settings: THP-1, 72 h
# [1] = tested on: Mycobacterium tuberculosis; assay: Antimycobacterial activity against Mycobacterium tuberculosis H37Rv after 14 days by broth micro-dilution method; format: functional; settings: 336 h
# Plasmodium falciparum [2] = assay: Antimalarial activity against Plasmodium falciparum HB3 after 48 hrs by [3H]-hypoxanthine incorporation assay; format: functional, organism-based
# Plasmodium falciparum [3] = assay: Antimalarial activity against Plasmodium falciparum FCR-3 after 48 hrs by [3H]-hypoxanthine incorporation assay; format: functional, organism-based; settings: FCR-3/Gambia
# Plasmodium falciparum [4] = assay: Antimalarial activity against Plasmodium falciparum Dd2 after 48 hrs by [3H]-hypoxanthine incorporation assay; format: functional, organism-based
# Plasmodium berghei = assay: Antimalarial activity against Plasmodium berghei […]; format: functional
# Plasmodium falciparum [5] = assay: Antimalarial activity against Plasmodium falciparum W2 after 48 hrs by [3H]-hypoxanthine incorporation assay; format: functional, organism-based
# Plasmodium falciparum [6] = assay: Antimalarial activity against Plasmodium falciparum AN3661 derived from malaria patient; format: functional
# Plasmodium falciparum [7] = assay: Antimalarial activity against Plasmodium falciparum K1 after 48 hrs by [3H]-hypoxanthine incorporation assay; format: functional, organism-based
# Plasmodium falciparum [8] = assay: Antimalarial activity against Plasmodium falciparum Ugandan field isolates after 48 hrs by [3H]-hypoxanthine incorporation assay; format: functional, organism-based
# Plasmodium falciparum [9] = assay: Antimalarial activity against Plasmodium falciparum TM90C2B after 48 hrs by [3H]-hypoxanthine incorporation assay; format: functional, organism-based
# Plasmodium falciparum [10] = assay: Antimalarial activity against Plasmodium falciparum 3D7 after 48 hrs by [3H]-hypoxanthine incorporation assay; format: functional, organism-based
# Enterococcus faecium = assay: Antibacterial activity against Enterococcus faecium ATCC 568; format: functional
# Streptococcus pneumoniae = assay: Antibacterial activity against Streptococcus pneumoniae ATCC 49619; format: functional
# [11] = Inhibition of bacterial beta lactamase CTX-M-15; parameters: species or system Bacteria
# [12] = Inhibition of bacterial beta lactamase VIM-2; parameters: species or system Bacteria
# [13] = Inhibition of bacterial beta lactamase KPC-2; parameters: species or system Bacteria
# [14] = Inhibition of bacterial beta lactamase NDM-1; parameters: species or system Bacteria
# A2780 = assay: Antiproliferative activity against human A2780 cells by MTT assay; format: functional, cell-based
# MDA-MB-231 [15] = assay: Antiproliferative activity against human MDA-MB-231 cells by MTT assay; format: functional, cell-based
# HCT-116 = assay: Antiproliferative activity against human HCT116 cells by MTT assay; format: functional, cell-based
# SK-OV-3 = assay: Antiproliferative activity against human SKOV3 cells by MTT assay; format: functional, cell-based
# [16] = Inhibition of bacterial beta lactamase OXA-10 after 5 mins; parameters: species or system Bacteria
# Beta-lactamase TEM = Beta-lactamase TEM (Bacteria, UniProt P62593); assay: Inhibition of bacterial beta lactamase TEM-1 after 5 mins
# [17] = Inhibition of Enterobacter cloacae beta lactamase P99 after 5 mins
# [18] = Inhibition of bacterial beta lactamase OXA-48 after 5 mins; parameters: species or system Bacteria
# [19] = Inhibition of bacterial beta lactamase OXA-24 after 5 mins; parameters: species or system Bacteria
# [20] = Inhibition of bacterial beta lactamase CTX-M-15 after 5 mins; parameters: species or system Bacteria
# [21] = Inhibition of bacterial beta lactamase KPC-2 after 5 mins; parameters: species or system Bacteria
# [22] = Inhibition of Pseudomonas aeruginosa beta lactamase AmpC after 5 mins
# [23] = Inhibition of bacterial beta lactamase CTX-M-9; parameters: species or system Bacteria
# [24] = Inhibition of bacterial beta lactamase AmpC; parameters: species or system Bacteria
# Leishmania aethiopica = assay: Antileishmanial activity Leishmania aethiopica MHOM/ET/84/KH after 72 hrs by giemsa staining based light microscopic analysis; format: functional, organism-based
# Leishmania tropica [25] = assay: Antileishmanial activity Leishmania tropica AO21/p after 72 hrs by giemsa staining based light microscopic analysis; format: functional, organism-based
# Leishmania major = assay: Antileishmanial activity Leishmania major MHOM/SA/85/JISH118 after 72 hrs by giemsa staining based light microscopic analysis; format: functional, organism-based; settings: MHOM/SA/85/JISH118, 72 h
# Leishmania mexicana = assay: Antileishmanial activity Leishmania mexicana MNYC/BZ/62/M379 after 72 hrs by giemsa staining based light microscopic analysis; format: functional, organism-based; settings: MNYC/BZ/62/M379, 72 h
# Leishmania panamensis = assay: Antileishmanial activity Leishmania panamensis MHOM/PA/67/BOYNTON after 72 hrs by giemsa staining based light microscopic analysis; format: functional, organism-based
# Leishmania tropica [26] = assay: Antileishmanial activity Leishmania tropica MHOM/IR/2013/HTD4 after 72 hrs by giemsa staining based light microscopic analysis; format: functional, organism-based; settings: MHOM/IR/2013/HTD4, 72 h
# GH3 = assay: Cytotoxicity against rat GH3 cells; format: functional, cell-based
# [27] = target: Proteasome Macropain subunit MB1 (Homo sapiens, UniProt P28074); assay: Inhibition of human chymotrypsin-like activity of 20S proteasome (unknown origin)
# MDA-MB-231 [28] = assay: Antiproliferative activity against human MDA-MB-231 cells after 72 hrs; format: functional, cell-based; settings: MDA-MB-231, 72 h
# [29] = Inhibition of bacterial beta lactamase OXA-24; parameters: species or system Bacteria
# [30] = target: 3',5'-cyclic-AMP phosphodiesterase 4B (Homo sapiens, UniProt Q07343); assay: Inhibition of […] human recombinant PDE4B catalytic domain (152 to 484 residues)
# [31] = tested on: Trypanosoma brucei brucei; assay: Anti-parasitic activity against trypomastigote form of Trypanosoma brucei brucei 427 after 24 hrs by resazurin dye-based assay; format: functional, organism-based; settings: Trypanosoma brucei, 427, 24 h
# [32] = tested on: Mycobacterium tuberculosis; assay: […] activity against Mycobacterium tuberculosis; format: functional
# Trichomonas vaginalis = assay: Antiprotozoal activity against Trichomonas vaginalis G3; format: functional, organism-based
# Hep 3B2 = assay: Antiproliferative activity against human Hep3B cells by MTT assay; format: functional, cell-based
# HepG2 = assay: Antiproliferative activity against human HepG2 cells by MTT assay; format: functional, cell-based
# Chain of Proteasome Macropain subunit MB1 (P28074 whole entry): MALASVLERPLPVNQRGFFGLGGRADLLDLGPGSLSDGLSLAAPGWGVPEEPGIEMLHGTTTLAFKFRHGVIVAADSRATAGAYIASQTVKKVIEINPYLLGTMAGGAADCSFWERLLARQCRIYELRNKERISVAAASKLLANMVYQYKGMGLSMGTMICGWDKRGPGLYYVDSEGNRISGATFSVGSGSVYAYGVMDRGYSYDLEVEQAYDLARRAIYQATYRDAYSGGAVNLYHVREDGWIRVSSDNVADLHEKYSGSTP
# Chain of 3',5'-cyclic-AMP phosphodiesterase 4B (Q07343 whole entry, the tested form may be a part): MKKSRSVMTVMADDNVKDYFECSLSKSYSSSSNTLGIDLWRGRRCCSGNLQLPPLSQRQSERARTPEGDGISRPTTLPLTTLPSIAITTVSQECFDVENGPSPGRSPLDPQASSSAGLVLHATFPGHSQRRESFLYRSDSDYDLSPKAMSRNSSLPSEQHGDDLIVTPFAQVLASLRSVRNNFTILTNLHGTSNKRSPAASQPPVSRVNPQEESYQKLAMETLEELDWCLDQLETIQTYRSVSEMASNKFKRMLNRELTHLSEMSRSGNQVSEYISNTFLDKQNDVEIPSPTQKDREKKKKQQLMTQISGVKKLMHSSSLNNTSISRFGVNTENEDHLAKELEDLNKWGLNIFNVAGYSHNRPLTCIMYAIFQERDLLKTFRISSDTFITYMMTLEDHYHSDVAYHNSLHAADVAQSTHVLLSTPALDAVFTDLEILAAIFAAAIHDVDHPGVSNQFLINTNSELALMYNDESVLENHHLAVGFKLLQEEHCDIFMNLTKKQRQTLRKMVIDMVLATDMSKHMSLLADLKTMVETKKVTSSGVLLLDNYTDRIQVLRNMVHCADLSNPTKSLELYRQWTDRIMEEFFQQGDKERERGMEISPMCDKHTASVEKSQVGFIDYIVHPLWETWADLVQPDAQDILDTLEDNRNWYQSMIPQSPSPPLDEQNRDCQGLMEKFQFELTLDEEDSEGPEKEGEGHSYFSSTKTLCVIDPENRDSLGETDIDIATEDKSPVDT
# Chain of Beta-lactamase TEM (P62593 whole entry): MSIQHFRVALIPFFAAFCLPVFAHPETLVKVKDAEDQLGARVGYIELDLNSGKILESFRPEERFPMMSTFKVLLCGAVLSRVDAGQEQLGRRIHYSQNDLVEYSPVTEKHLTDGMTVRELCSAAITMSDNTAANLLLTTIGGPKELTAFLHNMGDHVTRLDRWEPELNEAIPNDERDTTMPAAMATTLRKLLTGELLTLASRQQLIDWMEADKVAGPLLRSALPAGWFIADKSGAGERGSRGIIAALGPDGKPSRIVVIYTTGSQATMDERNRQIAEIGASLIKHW
smiles,measurement,setting,value
Cc1ccc2c(c1-c1ccccc1C(N)=O)B(O)OC2,IC50,THP-1,1.8 µM
same,MIC99,[1],5 µM
O=C(O)CCc1cccc2c1B(O)OC2,IC50,Plasmodium falciparum [2],0.032 µM
same,IC50,Plasmodium falciparum [3],0.032 µM
same,IC50,Plasmodium falciparum [4],0.032 µM
same,ED90,Plasmodium berghei,0.57 mg/kg
same,IC50,Plasmodium falciparum [5],0.032 µM
same,ED90,Plasmodium falciparum [6],0.34 mg/kg
same,IC50,Plasmodium falciparum [7],0.032 µM
same,IC50,Plasmodium falciparum [8],0.064 µM
same,IC50,Plasmodium falciparum [9],0.032 µM
same,IC50,Plasmodium falciparum [10],0.032 µM
CC[C@H]1OC(=O)[C@H](C)[C@@H](O[C@H]2C[C@@](C)(OC)[C@@H](OC(=O)NCCCNC(=O)CCc3cccc4c3B(O)OC4)[C@H](C)O2)[C@H](C)[C@@H](O[C@@H]2O[C@H](C)C[C@H](N(C)C)[C@H]2O)[C@](C)(O)C[C@@H](C)CN(C)[C@H](C)[C@H]2OC(=O)O[C@@]21C,MIC,Enterococcus faecium,0.13 mg/L
same,MIC,Streptococcus pneumoniae,0.13 mg/L
CC(C)(C)OC(=O)c1cccc2cc(B(O)O)sc12,IC50,[11],2.3 to 4.5 µM
same,IC50,[12],20.2 to 27.7 µM
same,IC50,[13],2.3 to 4.5 µM
same,IC50,[14],20.2 to 27.7 µM
OB1OC(N2CCOCC2)c2cc(F)ccc21 (stereo unspecified),IC50,A2780,14.8 µM
CC(C)(C)OC(=O)Nc1cccc2cc(B(O)O)sc12,IC50,[11],2.3 to 4.5 µM
same,IC50,[13],2.3 to 4.5 µM
O=C(/C=C/c1ccc2c(c1)B(O)OC2)c1ccc(F)cc1,IC50,MDA-MB-231 [15],1.4 to 2.8 µM
same,IC50,HCT-116,1.4 to 2.8 µM
same,IC50,SK-OV-3,1.4 to 2.8 µM
Cc1c(Oc2nc(N)ns2)cc2c(c1C)[C@@H](CC(=O)O)OB2O,IC50,[16],0.005 to 3.9 µM
same,IC50,Beta-lactamase TEM,0.005 to 3.9 µM
same,IC50,[17],0.005 to 3.9 µM
same,IC50,[18],0.005 to 3.9 µM
same,IC50,[19],0.005 to 3.9 µM
same,IC50,[20],0.005 to 3.9 µM
same,IC50,[21],0.005 to 3.9 µM
same,IC50,[22],0.005 to 3.9 µM
O=C(O)/C=C/c1c(B(O)O)sc2ccccc12,Ki,[23],0.04 to 0.09 µM
same,Ki,[24],0.04 to 0.09 µM
O=C(Nc1ccc2c(c1)B(O)OC2)c1cn(-c2ccccn2)nn1,EC50,Leishmania aethiopica,2 to 23 µM
same,EC50,Leishmania tropica [25],2 to 23 µM
same,EC50,Leishmania major,2 to 23 µM
same,EC50,Leishmania mexicana,2 to 23 µM
same,EC50,Leishmania panamensis,2 to 23 µM
same,EC50,Leishmania tropica [26],2 to 23 µM
CCOC(=O)/C(C#N)=C/c1ccc(B(O)O)cc1,IC50,GH3,0.14 µM
CSC[C@H](NC(=O)c1cc(Cl)ccc1Cl)C(=O)N[C@@H](CC(C)C)B1OCCNCCO1,IC50,[27],0.0046 µM
same,IC50,MDA-MB-231 [28],0.0084 µM
O=C(O)c1cccc2cc(B(O)O)sc12,IC50,[12],20.2 to 27.7 µM
same,IC50,[29],23 µM
same,IC50,[14],20.2 to 27.7 µM
CC(C)OCCOc1nc(Oc2ccc3c(c2)COB3O)ccc1C#N,IC50,[30],0.0021 to 0.0084 µM
CCc1cccc(Nc2ccn(CCC(=O)N[C@@H](CC(C)C)B(O)O)c(=O)c2)c1,Ki,[27],0.017 µM
O=C(/C=C/c1ccc2c(c1)OCO2)Nc1ccc2c(c1)B(O)OC2,IC50,[31],0.086 µM
same,MIC99,[32],40.7 µM
same,IC50,Trichomonas vaginalis,22.8 µM
Cc1cnn(B(n2cc(C)cn2)n2cc(C)cn2)c1,IC50,Hep 3B2,15.2 µM
same,IC50,HepG2,1.25 µM
NCc1ccc2sc(B(O)O)cc2c1,IC50,[24],0.4 µM
CN(C)CCOc1cc(NC(=O)c2ccc3c(c2)COB3O)ccc1Cl,EC50,Leishmania aethiopica,2 to 23 µM
same,EC50,Leishmania tropica [25],2 to 23 µM
same,EC50,Leishmania major,2 to 23 µM
same,EC50,Leishmania mexicana,2 to 23 µM
same,EC50,Leishmania panamensis,2 to 23 µM
same,EC50,Leishmania tropica [26],2 to 23 µM
Nc1ccc2c(c1Br)B(O)OC2,MIC99,[1],1.9 µM
